Key:
Nonstructural protein 5 [1] = molecular target: T1, Nonstructural protein 5 (Dengue virus, UniProt V5TFZ2); assay: Inhibition of DENV NS5/RNA-dependent RNA polymerase
[2] = Inhibition of DENV RNA-dependent RNA polymerase in hamster BHK-21 cells; type: cell-based, Dengue virus
[3] = Cytotoxicity against hamster BHK-21 cells; type: toxicity, cell-based, Mesocricetus auratus
dengue virus type 2 [4] = assay: Antiviral activity against DENV-2 RNA-dependent RNA polymerase infected in human Huh-7 cells assessed as reduction in viral replication by RT-PCR analysis; type: functional, organism-based
Zika virus = assay: Antiviral activity against Zika virus infected in African green monkey Vero cells assessed as reduction in viral replication incubated for 24 hrs; type: functional, organism-based
[5] = Inhibition of DENV RNA-dependent RNA polymerase activity; parameters: species or system Dengue virus
NS5 = NS5 (Zika virus, UniProt A0A143MHK7); assay: Inhibition of Zika virus RNA-dependent RNA polymerase activity
NS5, sequence (A0A143MHK7 whole entry): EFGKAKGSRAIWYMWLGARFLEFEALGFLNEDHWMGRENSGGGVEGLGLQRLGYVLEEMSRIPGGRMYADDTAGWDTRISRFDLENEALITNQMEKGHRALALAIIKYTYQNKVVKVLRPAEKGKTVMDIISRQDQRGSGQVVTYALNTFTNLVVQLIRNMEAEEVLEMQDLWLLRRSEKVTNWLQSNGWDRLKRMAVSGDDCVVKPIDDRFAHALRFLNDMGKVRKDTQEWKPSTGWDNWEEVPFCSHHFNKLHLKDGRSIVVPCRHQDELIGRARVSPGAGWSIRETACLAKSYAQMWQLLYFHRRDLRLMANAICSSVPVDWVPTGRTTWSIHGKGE

[6] = Cytotoxicity against African green monkey Vero cells; type: toxicity, cell-based; settings: chlorocebus sabaeus
Dengue virus = assay: Antiviral activity against DENV NS5/RNA-dependent RNA polymerase; type: functional, organism-based
Vero = assay: Inhibition of DENV-2 RNA-dependent RNA polymerase in African green monkey Vero cells measured for 24 to 72 hrs relative to control; type: cell-based; settings: dengue virus type 2, time 24-72 hrs, dose or concentration not given here
Nonstructural protein 5 [7] = molecular target: T1, Nonstructural protein 5; assay: Inhibition of full length His-tagged DENV-2 NS5 incubated for 1 hr; parameters: species or system dengue virus type 2
Nonstructural protein 5 [8] = molecular target: T1, Nonstructural protein 5; assay: Binding affinity to full length His-tagged DENV-2 NS5 assessed as dissociation constant; parameters: species or system dengue virus type 2
NS5 (Zika virus) = NS5 (Zika virus) (UniProt A0A143MHK7); assay: Inhibition of Zika virus RNA-dependent RNA polymerase relative to control; settings: concentration not given here
NS5 (Zika virus), sequence (A0A143MHK7 as listed by the source): as the sequence (A0A143MHK7 whole entry) above

dengue virus type 1 = assay: Antiviral activity against DENV-1 RNA-dependent RNA polymerase infected in African green monkey Vero cells assessed as reduction in viral replication incubated for 2 days by qRT-PCR analysis; type: functional, organism-based; settings: 48 h
dengue virus type 2 [9] = assay: Antiviral activity against DENV-2 RNA-dependent RNA polymerase infected in African green monkey Vero cells assessed as reduction in viral replication incubated for 2 days by qRT-PCR analysis; type: functional, organism-based; settings: 48 h
dengue virus type 3 = assay: Antiviral activity against DENV-3 RNA-dependent RNA polymerase infected in African green monkey Vero cells assessed as reduction in viral replication incubated for 2 days by qRT-PCR analysis; type: functional, organism-based; settings: 48 h
dengue virus type 4 = assay: Antiviral activity against DENV-4 RNA-dependent RNA polymerase infected in African green monkey Vero cells assessed as reduction in viral replication incubated for 2 days by qRT-PCR analysis; type: functional, organism-based; settings: 48 h
Genome polyprotein = Genome polyprotein (dengue virus type 2, UniProt P29990); assay: Inhibition of DENV-2 DENV2 NS2B-NS3
Genome polyprotein, sequence (P29990 1346-1475 limits assumed): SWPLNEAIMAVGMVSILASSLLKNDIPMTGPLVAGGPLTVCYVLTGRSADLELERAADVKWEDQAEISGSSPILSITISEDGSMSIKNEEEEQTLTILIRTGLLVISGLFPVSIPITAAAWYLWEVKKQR
Genome polyprotein, sequence (P29990 1476-2093 limits assumed): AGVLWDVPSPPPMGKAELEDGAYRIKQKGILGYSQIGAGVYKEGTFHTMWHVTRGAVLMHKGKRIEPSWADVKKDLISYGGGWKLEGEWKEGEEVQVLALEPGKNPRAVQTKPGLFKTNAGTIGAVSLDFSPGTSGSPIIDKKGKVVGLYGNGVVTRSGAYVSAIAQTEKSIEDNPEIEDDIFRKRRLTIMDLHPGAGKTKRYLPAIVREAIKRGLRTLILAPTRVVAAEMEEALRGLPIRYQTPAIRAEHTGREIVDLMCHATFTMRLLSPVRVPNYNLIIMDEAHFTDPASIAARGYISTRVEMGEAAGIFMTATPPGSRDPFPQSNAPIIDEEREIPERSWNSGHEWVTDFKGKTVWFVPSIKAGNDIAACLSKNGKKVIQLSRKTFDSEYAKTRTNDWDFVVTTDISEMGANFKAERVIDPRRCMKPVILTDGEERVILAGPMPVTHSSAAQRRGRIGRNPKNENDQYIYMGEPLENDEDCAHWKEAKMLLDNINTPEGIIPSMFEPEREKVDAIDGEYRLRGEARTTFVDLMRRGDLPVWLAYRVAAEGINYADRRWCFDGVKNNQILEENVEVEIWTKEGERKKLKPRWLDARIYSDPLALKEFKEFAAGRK

Nonstructural protein 5 [10] = molecular target: T1, Nonstructural protein 5; assay: Inhibition of DENV-4 NS5; parameters: species or system dengue virus type 4
[11] = Inhibition od DENV-2 RNA-dependent RNA polymerase; parameters: species or system dengue virus type 2
Hepacivirus hominis = assay: Inhibition of C-terminal his6-tagged HCV NS5/RNA-dependent RNA polymerase expressed in Escherichia coli at 100 uM incubated for 2 hrs by Microbeta counter analysis
[12] = molecular target: T2, DNA polymerase alpha catalytic subunit (Homo sapiens) (UniProt P09884); assay: Inhibition of human DNA polymerase alpha at 100 uM incubated for 60 mins by Microbeta counter analysis
T2 sequence (whole entry): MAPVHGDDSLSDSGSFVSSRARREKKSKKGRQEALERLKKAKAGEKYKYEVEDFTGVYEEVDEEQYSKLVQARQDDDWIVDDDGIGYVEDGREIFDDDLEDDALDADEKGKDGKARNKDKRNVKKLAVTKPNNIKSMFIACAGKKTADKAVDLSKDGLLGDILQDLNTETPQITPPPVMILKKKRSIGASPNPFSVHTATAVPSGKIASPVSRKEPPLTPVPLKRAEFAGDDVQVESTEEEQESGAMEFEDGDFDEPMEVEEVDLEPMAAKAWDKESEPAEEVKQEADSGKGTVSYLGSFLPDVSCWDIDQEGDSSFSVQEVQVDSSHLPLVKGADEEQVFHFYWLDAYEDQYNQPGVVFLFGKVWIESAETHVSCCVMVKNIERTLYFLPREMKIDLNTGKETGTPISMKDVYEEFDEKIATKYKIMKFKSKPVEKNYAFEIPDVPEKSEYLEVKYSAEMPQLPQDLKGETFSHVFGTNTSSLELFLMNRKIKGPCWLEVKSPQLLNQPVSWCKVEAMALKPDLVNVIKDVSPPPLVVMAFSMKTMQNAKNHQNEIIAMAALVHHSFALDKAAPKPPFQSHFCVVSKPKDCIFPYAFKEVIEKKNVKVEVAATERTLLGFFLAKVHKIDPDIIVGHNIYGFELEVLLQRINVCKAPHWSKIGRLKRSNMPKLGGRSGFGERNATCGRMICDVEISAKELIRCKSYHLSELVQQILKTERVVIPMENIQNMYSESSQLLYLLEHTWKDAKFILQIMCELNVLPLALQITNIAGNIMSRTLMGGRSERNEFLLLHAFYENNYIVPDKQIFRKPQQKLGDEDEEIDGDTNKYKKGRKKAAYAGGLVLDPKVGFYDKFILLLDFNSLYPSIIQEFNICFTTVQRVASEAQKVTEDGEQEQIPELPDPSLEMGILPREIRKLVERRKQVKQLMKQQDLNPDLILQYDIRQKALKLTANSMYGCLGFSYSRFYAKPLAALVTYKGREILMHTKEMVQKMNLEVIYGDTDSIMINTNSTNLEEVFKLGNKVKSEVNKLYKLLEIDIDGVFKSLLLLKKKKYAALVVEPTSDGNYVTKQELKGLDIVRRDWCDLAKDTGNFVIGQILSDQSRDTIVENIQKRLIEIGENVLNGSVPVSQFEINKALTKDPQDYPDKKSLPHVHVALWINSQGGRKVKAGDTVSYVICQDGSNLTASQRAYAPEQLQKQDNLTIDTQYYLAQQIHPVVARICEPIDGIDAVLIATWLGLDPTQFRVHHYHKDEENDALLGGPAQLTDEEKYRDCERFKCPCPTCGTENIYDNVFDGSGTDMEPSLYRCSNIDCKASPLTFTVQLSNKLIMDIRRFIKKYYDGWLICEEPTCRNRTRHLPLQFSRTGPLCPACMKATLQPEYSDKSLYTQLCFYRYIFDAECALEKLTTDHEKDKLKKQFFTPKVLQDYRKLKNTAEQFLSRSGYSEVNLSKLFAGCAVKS

Nonstructural protein 5 [13] = molecular target: T1, Nonstructural protein 5; assay: Inhibition of DENV-2 NS5; parameters: species or system dengue virus type 2

T1 sequence (V5TFZ2 whole entry): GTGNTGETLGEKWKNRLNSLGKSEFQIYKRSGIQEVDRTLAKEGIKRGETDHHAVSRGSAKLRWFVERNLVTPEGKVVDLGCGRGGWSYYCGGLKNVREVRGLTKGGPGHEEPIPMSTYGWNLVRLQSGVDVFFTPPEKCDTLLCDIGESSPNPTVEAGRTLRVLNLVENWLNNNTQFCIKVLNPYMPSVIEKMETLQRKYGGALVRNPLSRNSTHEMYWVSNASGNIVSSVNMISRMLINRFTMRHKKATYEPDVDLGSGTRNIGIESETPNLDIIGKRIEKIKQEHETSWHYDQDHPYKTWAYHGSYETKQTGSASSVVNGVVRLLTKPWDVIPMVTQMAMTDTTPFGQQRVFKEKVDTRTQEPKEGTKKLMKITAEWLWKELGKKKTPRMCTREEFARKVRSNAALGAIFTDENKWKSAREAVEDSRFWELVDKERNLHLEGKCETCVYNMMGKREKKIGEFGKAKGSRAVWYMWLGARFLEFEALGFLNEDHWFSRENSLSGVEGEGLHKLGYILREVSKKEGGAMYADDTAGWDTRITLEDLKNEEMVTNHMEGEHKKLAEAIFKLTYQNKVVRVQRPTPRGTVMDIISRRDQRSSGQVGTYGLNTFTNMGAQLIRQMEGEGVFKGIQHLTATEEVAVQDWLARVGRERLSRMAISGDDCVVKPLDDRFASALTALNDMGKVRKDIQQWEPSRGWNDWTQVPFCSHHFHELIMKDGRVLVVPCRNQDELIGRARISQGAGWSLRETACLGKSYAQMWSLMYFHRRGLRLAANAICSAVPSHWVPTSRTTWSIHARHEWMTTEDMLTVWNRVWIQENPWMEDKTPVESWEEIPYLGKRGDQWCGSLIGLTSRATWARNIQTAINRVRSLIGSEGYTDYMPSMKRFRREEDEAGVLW

In the case of `COc1cc(O)c2c(=O)cc(-c3ccc(O)cc3)oc2c1-c1cc(-c2cc(=O)c3c(O)cc(O)cc3o2)ccc1O` [SOTETSUFLAVONE], the IC50 (Nonstructural protein 5 [1]) is reported as 160 nM.

Compound `C#Cc1c(C#N)ncn1[C@@H]1S[C@H](CO)[C@@H](O)[C@H]1O` has an IC50 [2] of 6570 nM and a CC50 [3] of over 50000 nM.

Work on `O=C(N[C@@H](Cc1ccc(O)cc1)C(=O)O)c1cc(-c2ccccc2)c(=O)n2c1sc1ccc(C3CCCCCC3)cc12` yielded an EC50 (dengue virus type 2 [4]) of 3700 nM and an EC50 (Zika virus) of 1600 nM.

Work on `CCC(CC)COC(=O)[C@H](C)N[P@](=O)(OC[C@H]1O[C@@](C#N)(c2ccc3c(N)ncnn23)[C@H](O)[C@@H]1O)Oc1ccccc1` yielded an IC50 [5] of 1400 nM and an IC50 (NS5) of 1360 nM.

In the case of `CCCC/C=C/C#CCCCCCCCC(=O)O`, the CC50 [6] is reported as 30000 nM and the IC50 (Dengue virus) is reported as 2700 nM.

`CC(C)[C@H](N)C(=O)OCC(CO)OCn1cnc2c(=O)[nH]c(N)nc21` (stereo not given in full) showed an inhibition (Vero) of 10%.

Work on `O=C(O)/C=C/C#CCCCCCCCC(=O)O` yielded a CC50 [6] of over 420000 nM and an IC50 (Dengue virus) of 2500 nM.

In the case of `C#Cc1c(C#N)ncn1[C@@H]1O[C@H](CO)[C@@H](O)[C@H]1O`, the IC50 [2] is reported as 550 nM and the CC50 [3] is reported as 3990 nM.

Compound `O=C1N/C(=N\c2nnc(-c3ccccc3Cl)s2)S/C1=C\c1cccc(F)c1` has an IC50 (Nonstructural protein 5 [7]) of 2100 nM and a Kd (Nonstructural protein 5 [8]) of 9100 nM.

In the case of `CO[C@@H]1[C@H](O)[C@@H](COP(=O)(O)OP(=O)(O)OP(=O)(O)O)O[C@H]1n1ccc(N)nc1=O`, the inhibition (NS5 (Zika virus)) is reported as 72.2%.

Work on `C[C@@]1(O)[C@H](O)[C@@H](CO)O[C@H]1n1cc(F)c2c(N)ncnc21` yielded an EC50 (dengue virus type 1) of 960 nM, an EC50 (dengue virus type 2 [9]) of 460 nM and an EC50 (dengue virus type 3) of 850 nM. For the same compound, the EC50 (dengue virus type 4) was 870 nM.

With `CCCCC#CC#CC#CCCCCCCCC(=O)O` the CC50 [6] was 30000 nM and the IC50 (Dengue virus) was 2700 nM.

`Cc1cn([C@H]2C=C[C@@H](CO)O2)c(=O)[nH]c1=O` showed an inhibition (Vero) of 11%.

With `C#Cc1c(C(N)=O)ncn1[C@@H]1O[C@H](CO)[C@@H](O)[C@H]1O` the IC50 [2] was 270 nM and the CC50 [3] was 1240 nM.

For `O=C(NCCO)c1cc(-c2ccccc2)c(=O)n2c1sc1ccc(C3CCCCC3)cc12`, the EC50 (dengue virus type 2 [4]) was 1900 nM and the EC50 (Zika virus) was 1800 nM.

Work on `O=C(N[C@@H](Cc1ccc(O)cc1)C(=O)O)c1cc(-c2ccccc2)c(=O)n2c1sc1ccc(OC3CCCCC3)cc12` yielded an IC50 (Genome polyprotein) of 9610 nM.

In the case of `O=C(O)c1ccccc1NS(=O)(=O)c1cccc(-c2cnn(Cc3ccccc3)c2)c1`, the IC50 (Nonstructural protein 5 [10]) is reported as 5200 nM, the IC50 [11] is reported as 700 nM and the inhibition (Hepacivirus hominis) is reported as 23%. For the same compound, the inhibition [12] was 32% and the IC50 (Nonstructural protein 5 [13]) was 4600 nM.

Compound `C[C@@]1(O)[C@H](O)[C@@H](COP(=O)(O)OP(=O)(O)OP(=O)(O)O)O[C@H]1n1ccc2c(N)ncnc21` has an IC50 (NS5) of 8920 nM.
